Legend:
[1] = tested on: gap junction function in IMR32; type: cell-based
Description: The classical scrape loading test was used to monitor the function of gap junction channels. Briefly, a cut is performed with a fine needle in sub-confluent cell cultures (refer reverse phases micrograph 5B). The culture is then covered with a film of fluorescent dye Lucifer yellow which is not cell permeant. The dye however penetrates the wounded cells along the scrape. From these loaded cells the dye can only be transferred to neighbor cells through the gap junction channels. The number of cell rows that receive the dye after a given time (3 min) provides an estimation of the gap junction function. Primary antibodies specific to PKC isoforms alpha beta I and beta II were introduced individually or in combination (as shown) by endocytosis using a kit from Molecular Probe following the supplier instructions. Controls for the introduction of the specific antibodies were performed by fixing and permeabilizing the cells then staining them with a secondary antibody conjugated to Texas red (Johnson labs).
All documents referred to are incorporated herein by reference.

[2] = tested on: IMR32 neuroblastoma cells; assay: Growth of IMR32 neuroblastoma cells in vitro (population size, Hoechst fluorometry); type: cell-based; parameters: population size, percent of matching controls: concentration or dose not given beside the values; conditions: for population size, percent of matching controls: 24 replica
Description: Legend: IMR32 neuroblastoma cells were seeded in 96 well plates at a density of 1000 cells per well. Treatments were as follows: Control cells are untreated and growing in a MEM-based proliferation medium. […] A2+RA treatment consisted of medium A2 supplemented with all trans retinoic acid (RA) 1 uM on day 2; A1+RA consist of RA supplementation 1 uM in the absence of the cAMP analog. The population size (24 replica per treatment) was determined by a procedure using Hoechst as a reagent and cytofluor (BioRad) fluorometer for measurement. The results are expressed as a percent of matching controls.

Question: Which cell death [1] does the source give for Oc1ccc(-c2nc(-c3ccncc3)c(-c3ccc(F)cc3)[nH]2)cc1 [SB202190] here?
Answer: died of apoptosis

Question: What about the gap junction function [1] of the same molecule?
Answer: Gap junction function resuming

Question: CC1=C(/C=C/C(C)=C/C=C/C(C)=C/C(=O)O)C(C)(C)CCC1 [all trans retinoic acid (RA), all trans retinoic acid] was tested. Which “population size, percent of matching controls” value (shortened to “population size, percent”) ([2]; day 1) did it give?
Answer: 84%

Question: And the “population size, percent” value ([2]; day 2)?
Answer: 87%

Question: What about the “population size, percent” value ([2]; day 3) of the same molecule?
Answer: 90%

Question: What about the “population size, percent” value ([2]; day 4) of the same molecule?
Answer: 63%

Question: What about the “population size, percent” value ([2]; day 5) of the same molecule?
Answer: 70%

Question: What about the “population size, percent” value ([2]; day 6) of the same molecule?
Answer: 68%

Question: What about the “effect on growth (in words)” value ([2]; legend of Table 1) of the same molecule?
Answer: not very efficient in affecting growth
